# Values joined by “and” are separate entries in the source; they are usually repeats but may differ in a detail not shown here. Equal entries are not always repeated. Where two headings read alike, the source gives them in different places.
# Tests used:
# Format in all cases: cell-based
# [1] = test system: NOTCH1; experiment: Western blot analysis of S3-cleaved NOTCH1 (a-N1-V1744); conditions: clone A (#A1-11); Fig. 1F
# Method: Cells were washed in ice-cold PBS and incubated for 30 min on ice with RIPA cell lysis buffer (Thermofisher, cat #89900) containing protease and phosphatase inhibitors (Thermofisher, cat #78442), scraped off and homogenized using a 25G syringe, and subsequently centrifugated for 10 min at > 13,000xg. […] After electrophoresis, gels were placed directly onto a TransBlot Turbo PVDF or nitrocellulose membrane (Bio-rad, cat #1704157 and cat #1704159) and transferred using the “HIGH MW” protocol (Bio-Rad). Subsequently, membranes were blocked for 1 h at room temperature using Clear Milk Blocking Buffer (ThermoFisher, cat #37587) supplemented with 0.1% Tween20 (Sigma-Aldrich, cat #P1379). Detection of antibody binding was performed by using Clarity Western ECL-Substrate (Bio-rad, cat #1705060S). Beta-Actin protein signals were used as a loading control. Western blot membranes were in some experiments stripped after development (indicated in the figure in each respective case) by washing the membranes twice for 10 min in PBS, followed by incubation in membranes in western blot stripping buffer (ThermoFisher, cat #21059) for 30 min at room temperature and gentle agitation. Stripped membranes were washed twice with PBS and incubated for 30 min in blocking buffer before incubation with primary antibody. A list of all antibodies used in this study is provided in Supplemental Table 6. Uncropped western blot images are provided in […]. Protein expression levels of western blot bands were quantified using Fiji (V.2.16) with beta-Actin signals for normalisation (Supplemental Table 8). Uncropped western blot images are provided in Supplemental Fig. 10.
# [2] = test system: T-ALL and breast cancer cell lines; experiment: Growth inhibition in tumour cell lines (panel, cell lines not named singly); conditions: overview in comparison to compound C; Supplemental Fig. 9
# From the text: We next investigated whether compounds A-E affected growth and viability of cell lines from T-cell acute lymphoblastic leukaemia (T-ALL) and breast cancer, two tumour types in which elevated Notch signalling has been implicated in tumorigenesis. […] When testing analogues of compounds B and C, five of the seven B analogues and one of the two C analogues produced dose–response curves and IC50s, which however were higher compared to the original hits (Supplemental Fig. 5A; IC50s are presented in Supplemental Table 6).
# Compounds were spotted on white 384-well tissue culture plates (Greiner, cat #781080) using an Echo 525 Acoustic liquid handler (Labcyte). Cells were grown to 80% confluence, detached if required, counted and 20 µl containing 2000–4000 cells per well was then seeded in each well and cultivated for three (4,000 cells seeded) and six days (2,000 cells seeded). […] Luciferase activity (reading out metabolic activity) was determined using the CellTiter-Glo 2.0 kit (CTG, Promega, cat #G9242) following the manufacturer’s instructions and luminescence was measured on a SpectraMaxi3 or Varioscan plate reader (Molecular Devices, Thermofisher).
# [3] = test system: Notch signalling; experiment: Notch reporter assay (12xCSL firefly luciferase / renilla luciferase, HEK293T Notch1ΔE reporter cell line clone #A1-11); set-up: AUC Notch: scale not given here
# Outline: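 Compounds at two-fold concentration in 10 µl medium were brought to one-fold by adding 10 µl holding 4000 Notch reporter cells (clone #A1-11) per well of a 384-well plate. After 24 h, Promega dual-GLO firefly and renilla luciferase were read on a SpectraMaxi3. Dose-response curves were fitted with a log(inhibitor) vs. response variable-slope model.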
smiles,measurement,setting,value
"C[C@H](NC(=O)Cc1cc(F)cc(F)c1)C(=O)N[C@H](C(=O)OC(C)(C)C)c1ccccc1 [DAPT, reference compound]",S3-processing of Notch1ΔE (Western blot),[1],almost completely abolished
same,viability assay,[2],context specific
same,reporter signal in % of DMSO,"[3]; 10 µM, inhibitor controls, Supplemental Fig. 2A",49%
same,IC50,"[3]; 9p dose response, single replicates, read-out: approximated IC50s 9p Notch reporter assay",290 nM and 260 nM
same,AUC 9p Notch reporter assay,"[3]; 9p dose response, AUCs averaged when replicates available",3.01E+02
same,IC50,"[3]; 9p dose response, averaged over replicates, read-out: 9p Notch reporter assay averaged IC50s",280 nM
same,9p Notch reporter assay averaged IC50s (log),"[3]; 9p dose response, log10 of averaged IC50",-6.6
same,IC50,"[3]; 14-point, unit inferred, replicates averaged, read-out: approxiated IC50s 14p Notch reporter assay",440 nM
same,Bottom (Emax),"[3]; 14p Notch assay DR, Emax indicated independent from assay constraints, in % (unit assumed)",42.8 and 41.0
same,approximated LogIC50 [M],"[3]; 14p Notch assay DR, log10 value, Notch inhibitor controls, no bottom constraint named",-6.3 M
same,IC50,"[3]; 14p dose response, single replicates, read-out: approximated IC50s 14p Notch reporter assay",510 nM and 370 nM
same,AUC 14p Notch reporter assay,"[3]; 14p dose response, AUCs averaged when replicates available",4.95E+02
same,14p Notch reporter assay averaged IC50s (log),"[3]; 14p dose response, log10 of averaged IC50",-6.4
same,renilla signal,[3]; 384-well format,not affected
same,AUC Notch,"[3]; area under the 14-point dose-response curve, replicates averaged",495.0
same,Notch assay,"[3]; overview in comparison to compound C, Supplemental Fig. 9",comparable

# From PMC13242511, “Disrupting Notch signalling by a small molecule inhibiting dihydroorotate dehydrogenase activity” (Scientific Reports, 2026)
